Experimental data as given in US9943509B2, “Methods, compounds, and compositions for the treatment of musculoskeletal diseases” (UNIVERSITY OF SOUTHERN CALIFORNIA, priority 2013, dated 2018).
“Also recorded” adds a separate entry of the source.

Experiments:
[1] = system: Dmd^mdx mice; assay: Bone marrow mesenchymal stem cell (MSC) counts by CFU-F assay after treatment; type: in vivo, mouse; conditions: subcutaneous, Compound 7 0.5, 1.0 and 2.0 mg/kg/day, A(1-7) 0.5 mg/kg, 9 weeks, femur marrow cultured 8 days, vs vehicle
Description: FIG. 3: Six different subcutaneously delivered treatment groups (n=6/group) were evaluated—wild-type (WT) C57BL/10SnJ control mice plus five groups of Dmd^mdx (C57BL/10ScSn-Dmd^mdx/J) mice: vehicle (saline/Tween 20), A(1-7) 0.5 mg/kg/day, and Compound 7 at three doses (0.5, 1.0, and 2.0 mg/kg/day). At necropsy, following 9 weeks of treadmill exercise (12-15 m/min 3 times per week) and treatment, bone marrow was collected from both femurs, cultured 8 days, and mesenchymal stem cell (MSC) counts were recorded.
(§1) Methods: 10 weeks old male Dmd^mdx mice were exercised at 12-15 m/min for 30 min 3 times a week for 10 weeks. The absence of dystrophin in Dmd^mdx mice produces a vastly different phenotype than dystrophin deficiency in humans does [De Luca et al., 2003]. […] In this study, 10 weeks of exercise during treatment was used. There were six different treatment groups—Wild Type plus five groups of Dmd^mdx mice: Vehicle, Compound 7 0.5 mg/kg/day, Compound 7 1 mg/kg/day, Compound 7 2.0 mg/kg/day, and 0.5 mg/kg/day Angiotensin (1-7).
Necropsy: At the conclusion of the 9-week observation period (19 weeks of age), all animals were euthanized, and tissue samples and bone marrow (below) were collected. The tissues collected were the diaphragm, gastrocnemius muscle, soleus muscle, tibialis anterior muscle, plantaris muscle and heart. […]

[2] = system: Dmd^mdx mice; assay: Inverted grid test of grip strength (hang time) in treadmill-exercised mice; type: in vivo, mouse
Description: FIG. 1: Inverted Grid Test: Mouse hang times were recorded on an inverted grid test of grip strength following 8 weeks of treadmill exercise (12-15 m/min 3 times per week) and treatment. Six different subcutaneously delivered treatment groups (n=6/group) were evaluated—wild-type (WT) C57BL/10SnJ control mice plus five groups of Dmd^mdx (C57BL/10ScSn-Dmd^mdx/J) mice: vehicle (saline/Tween 20), A(1-7) 0.5 mg/kg/day, and Compound 7 at three doses (0.5, 1.0, and 2.0 mg/kg/day).
(§2) Effect of administration of a non-peptidic small molecule Mas agonist (“Mas agonist”), Compound 7, once daily by subcutaneous injection for 10 weeks in comparison with Angiotensin (1-7), a peptide shown in the literature to improve outcomes in mdx mice.
(§3) Test Articles: (1) Compound 7 in Tween in saline (0.5, 1 or 2 mg/kg/day); (2) A(1-7) in saline (0.5 mg/kg/day)
Methods: 10 weeks old male Dmd^mdx mice were exercised at 12-15 m/min for 30 min 3 times a week for 10 weeks. The absence of dystrophin in Dmd^mdx mice produces a vastly different phenotype than dystrophin deficiency in humans does [De Luca et al., 2003]. […] In this study, 10 weeks of exercise during treatment was used. There were six different treatment groups—Wild Type plus five groups of Dmd^mdx mice: Vehicle, Compound 7 0.5 mg/kg/day, Compound 7 1 mg/kg/day, Compound 7 2.0 mg/kg/day, and 0.5 mg/kg/day Angiotensin (1-7). […]

[3] = system: Dmd^mdx mice; assay: Histological evaluation of H&E stained diaphragm; type: in vivo, mouse; conditions: subcutaneous, Compound 7 0.5, 1.0, 2.0 mg/kg/day, A(1-7) 0.5 mg/kg/day, 9 weeks, 5 random 40× fields, vs saline
Description: FIG. 4: Histological evaluation: Six different subcutaneously delivered treatment groups (n=6/group) were evaluated—wild-type (WT) C57BL/10SnJ control mice plus five groups of Dmd^mdx (C57BL/10ScSn-Dmd^mdx/J) mice: vehicle (saline/Tween 20), A(1-7) 0.5 mg/kg/day, and Compound 7 at three doses (0.5, 1.0, and 2.0 mg/kg/day). At necropsy, following 9 weeks of treadmill exercise (12-15 m/min 3 times per week) and treatment, diaphragms were collected, fixed for 2 days in foramalin, paraffin embedded, sectioned, and H&E stained.
FIG. 5: Histological evaluation: H&E stained diaphragm section, prepared as described in FIG. 4, were analyzed by for degenerating and regenerating fibers as well as inflammation. For each animal (n=6 per treatment group) 5 random 40× fields were taken across the diaphragm section and analyzed. (A) Degenerating fibers were counted as deadened fibers co-localized with an open space. […] Compound 7 across the dosage was similar to Dmd^mdx mice treated with A(1-7). (B) The number of regenerating fibers per field were counted as healthy fibers appearing with basophilic staining. […] (C) Inflammation was quantified as loci of 10 or more inflammatory cells.
as §1
Necropsy: At the conclusion of the 9-week observation period (19 weeks of age), all animals were euthanized, and tissue samples and bone marrow (below) were collected. The tissues collected were the diaphragm, gastrocnemius muscle, soleus muscle, tibialis anterior muscle, plantaris muscle and heart. The gastrocnemius muscle, soleus muscle, tibialis anterior muscle, plantaris muscle from the left leg as well as the diaphragm and heart were fixed in formalin and stored in 70% EtOH for hematoxylin and eosin (H&E) staining.
Histological Evaluation of the Diaphragm: The diaphragm was embedded in paraffin, sectioned and stained by H & E (hematoxylin and eosin). The parameters were assessed include (1) the number of regenerating fibers as defined by basophilic fibers; (2) number of degenerating fibers and the number of inflammatory loci (clusters of 10 or more inflammatory cells). Five random 40× fields per diaphragm were evaluated.

[4] = system: Dmd^mdx mice; assay: Weights test of forelegs grip strength (grip score); type: in vivo, mouse
Description: FIG. 2: Performance on the weights test and calculation of grip score [Deacon, 2013] allowed a measure of forepaw grip strength was recorded following 9 weeks of treadmill exercise (12-15 m/min 3 times per week) and treatment. Six different subcutaneously delivered treatment groups (n=6/group) were evaluated—wild-type (WT) C57BL/10SnJ control mice plus five groups of Dmd^mdx (C57BL/10ScSn-Dmd^mdx/J) mice: vehicle (saline/Tween 20), A(1-7) 0.5 mg/kg/day, and Compound 7 at three doses (0.5, 1.0, and 2.0 mg/kg/day).
as §2, §3
Methods: 10 weeks old male Dmd^mdx mice were exercised at 12-15 m/min for 30 min 3 times a week for 10 weeks. […]
If the mouse is unsuccessful at lifting a particular weight for 3 seconds in all 3 attempts then the weight lower than the current weight was recorded as the last successful weight lifted by the mouse. The number of seconds (0 or 1 or 2) was recorded for the highest weight the mouse can lift. […]

[5] = system: mice chronically infused with AngII; conditions: AngII/A(1-7) co-treatment vs AngII infusion alone; Cisternas et al., 2015; cited from earlier work
[6] = system: cardiac fibrogenesis and remodeling; conditions: Iwata et al., 2005; Grobe et al., 2007; cited from earlier work
[7] = system: Dmd^mdx and Sgcd−/− mouse models of muscular dystrophy; conditions: Dmd^mdx and Sgcd−/− mice; Acuña et al., 2014; Sabharwal et al., 2012; cited from earlier work

| Compound | bone marrow MSC counts [1] | muscle strength by the inverted grid test ([2]; once daily subcutaneous, treadmill exercise, summary of FIG. 1) | hang time on the inverted grid test ([2]; subcutaneous 2.0 mg/kg/day, 8 weeks of treadmill exercise and treatment, vs vehicle treated Dmd^mdx, n=6/group, t-test) | inflammation: loci of 10 or more inflammatory cells in diaphragm [3] | number of degenerating fibers in diaphragm [3] | number of regenerating (basophilic) fibers per field in diaphragm [3] | weights test of grip strength, comparison with A(1-7) ([4]; Compound 7 0.5, 1 or 2 mg/kg/day vs A(1-7) 0.5 mg/kg/day) | muscle strength by the weights test of grip strength ([4]; once daily subcutaneous, treadmill exercise, summary of FIG. 2) | gastrocnemius muscle fiber diameter [5] | performance on the weights test [5] | cardiac fibrogenesis and remodeling (interstitial myocardial fibrosis, myocyte hypertrophy) [6] | fibrosis [7] | measures of muscle strength [7] | oxidative stress [7] |
| --- | --- | --- | --- | --- | --- | --- | --- | --- | --- | --- | --- | --- | --- | --- |
| CCCCOC(=O)NS(=O)(=O)c1ccc(OC(F)(F)F)cc1-c1ccc(Cn2ccnc2)cn1 [Compound 7, butyl ((2-(5-((1H-imidazol-1-yl)methyl)pyridin-2-yl)-4-(trifluoromethoxy)phenyl)sulfonyl)carbamate] | increased bone marrow MSC counts | increased muscle strength | increase in hang time | significantly increased number of regenerating fibers | reduction in the number of degenerative fibers; also recorded: reduce degenerating fibers | significantly increased number of regenerating fibers | superior to A(1-7) | increased muscle strength |  |  |  |  |  |  |
| Asp-Arg-Val-Tyr-Ile-His-Pro (DRVYIHP; printed: Asp-Arg-Val-Tyr-Ile-His-Pro) [A(1-7), endogenous Mas receptor heptapeptide ligand, purchased from BACHEM] | increased bone marrow MSC counts |  |  |  | reduction in the number of degenerative fibers |  |  |  | prevented a decrease in gastrocnemius muscle fiber diameter | increased | block cardiac fibrogenesis and remodeling | reduced fibrosis | improved measures of muscle strength | reduced |
